Assay results: ChEMBL document CHEMBL1201862, “PubChem BioAssay data set” (2004)
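How tested: cells in 96-well plates exposed to compound for 48 hours at five concentrations. At the GI50, growth is halved.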 Calls of active or inactive are those of the source. No stated cut-off is given here; in the data, active = GI50 up to about 1.1 µM and inactive = higher.

Columns and labels:
Assay in all cases: NCI-60 cell line screen, 48 h
786-0 = system: 786-0
A498 = system: A498
A549 = system: A549
ACHN = system: ACHN
BT-549 = system: BT-549
CAKI-1 = system: CAKI-1
CCRF-CEM = system: CCRF-CEM
COLO 205 = system: COLO 205
DU-145 = system: DU-145
EKVX = system: EKVX
HCC 2998 = system: HCC 2998
HCT-116 = system: HCT-116
HCT-15 = system: HCT-15
HL-60 = system: HL-60
HOP-62 = system: HOP-62
HT-29 = system: HT-29
IGROV-1 = system: IGROV-1
K562 = system: K562
KM12 = system: KM12
M14 = system: M14
MCF7 = system: MCF7
MDA-MB-231 = system: MDA-MB-231
MDA-MB-435 = system: MDA-MB-435
MDA-N = system: MDA-N
MOLT-4 = system: MOLT-4
Malme-3M = system: Malme-3M
NCI-H460 = system: NCI-H460
NCI/ADR-RES = system: NCI/ADR-RES
OVCAR-3 = system: OVCAR-3
OVCAR-5 = system: OVCAR-5
OVCAR-8 = system: OVCAR-8
PC-3 = system: PC-3
RPMI-8226 = system: RPMI-8226
RXF 393 = system: RXF 393
SF-268 = system: SF-268
SF-539 = system: SF-539
SK-MEL-28 = system: SK-MEL-28
SK-MEL-2 = system: SK-MEL-2
SK-MEL-5 = system: SK-MEL-5
SK-OV-3 = system: SK-OV-3
SN12C = system: SN12C
SNB-19 = system: SNB-19
SNB-75 = system: SNB-75
SR = system: SR
SW-620 = system: SW-620
T47D = system: T47D
TK-10 = system: TK-10
U-251 = system: U-251
UACC-257 = system: UACC-257
UACC-62 = system: UACC-62
UO-31 = system: UO-31
HOP-92 = system: HOP-92
Hs-578T = system: Hs-578T
LOX IMVI = system: LOX IMVI
NCI-H226 = system: NCI-H226
NCI-H23 = system: NCI-H23
NCI-H522 = system: NCI-H522
OVCAR-4 = system: OVCAR-4
SF-295 = system: SF-295

O=C1N[C@H]2c3c(Cl)sc(Cl)c3[C@@H](O)[C@H]2O1
GI50 (786-0): > 100 µM (inactive)
GI50 (A498): > 100 µM (inactive)
GI50 (A549): > 100 µM (inactive)
GI50 (ACHN): > 100 µM (inactive)
GI50 (BT-549): > 100 µM (inactive)
GI50 (CAKI-1): > 100 µM (inactive)
GI50 (CCRF-CEM): > 100 µM (inactive)
GI50 (COLO 205): > 100 µM (inactive)
GI50 (DU-145): > 100 µM (inactive)
GI50 (EKVX): > 100 µM (inactive)
GI50 (HCC 2998): > 100 µM (inactive)
GI50 (HCT-116): > 100 µM (inactive)
GI50 (HCT-15): > 100 µM
GI50 (HL-60): > 100 µM (inactive)
GI50 (HOP-62): > 100 µM (inactive)
GI50 (HT-29): > 100 µM (inactive)
GI50 (IGROV-1): > 100 µM (inactive)
GI50 (K562): > 100 µM (inactive)
GI50 (KM12): > 100 µM (inactive)
GI50 (M14): > 100 µM (inactive)
GI50 (MCF7): > 100 µM (inactive)
GI50 (MDA-MB-231): > 100 µM (inactive)
GI50 (MDA-MB-435): > 100 µM (inactive)
GI50 (MDA-N): > 100 µM (inactive)
GI50 (MOLT-4): > 100 µM (inactive)
GI50 (Malme-3M): > 100 µM (inactive)
GI50 (NCI-H460): > 100 µM (inactive)
GI50 (NCI/ADR-RES): > 100 µM (inactive)
GI50 (OVCAR-3): > 100 µM (inactive)
GI50 (OVCAR-5): > 100 µM (inactive)
GI50 (OVCAR-8): > 100 µM (inactive)
GI50 (PC-3): > 100 µM (inactive)
GI50 (RPMI-8226): > 100 µM (inactive)
GI50 (RXF 393): > 100 µM (inactive)
GI50 (SF-268): > 100 µM (inactive)
GI50 (SF-539): > 100 µM (inactive)
GI50 (SK-MEL-28): > 100 µM (inactive)
GI50 (SK-MEL-2): > 100 µM (inactive)
GI50 (SK-MEL-5): > 100 µM (inactive)
GI50 (SK-OV-3): > 100 µM (inactive)
GI50 (SN12C): > 100 µM (inactive)
GI50 (SNB-19): > 100 µM (inactive)
GI50 (SNB-75): > 100 µM (inactive)
GI50 (SR): > 100 µM (inactive)
GI50 (SW-620): > 100 µM (inactive)
GI50 (T47D): > 100 µM (inactive)
GI50 (TK-10): > 100 µM (inactive)
GI50 (U-251): > 100 µM (inactive)
GI50 (UACC-257): > 100 µM (inactive)
GI50 (UACC-62): > 100 µM (inactive)
GI50 (UO-31): > 100 µM (inactive)

C=C1CC(c2ccc(OCCCN3C(=O)c4ccccc4C3=O)c(OC)c2)OC1=O (stereo not drawn)
GI50 (786-0): 4.1 µM (inactive)
GI50 (A498): 1.77 µM (inactive)
GI50 (A549): 13.6 µM (inactive)
GI50 (ACHN): 6.25 µM (inactive)
GI50 (CAKI-1): 3.66 µM (inactive)
GI50 (CCRF-CEM): 1.06 µM (active)
GI50 (COLO 205): 1.4 µM (inactive)
GI50 (DU-145): 11.9 µM (inactive)
GI50 (EKVX): 11 µM (inactive)
GI50 (HCC 2998): 12 µM (inactive)
GI50 (HCT-116): 1.6 µM (inactive)
GI50 (HCT-15): 2.71 µM
GI50 (HL-60): 1.25 µM (inactive)
GI50 (HOP-62): 15.6 µM (inactive)
GI50 (HOP-92): 1.62 µM (inactive)
GI50 (HT-29): 2.58 µM (inactive)
GI50 (Hs-578T): 6.17 µM (inactive)
GI50 (IGROV-1): 2.56 µM (inactive)
GI50 (K562): 1.07 µM (active)
GI50 (KM12): 10.8 µM (inactive)
GI50 (LOX IMVI): 1.74 µM (inactive)
GI50 (M14): 4.3 µM (inactive)
GI50 (MCF7): 0.218 µM (active)
GI50 (MDA-MB-231): 9.25 µM (inactive)
GI50 (MDA-MB-435): 2.04 µM (inactive)
GI50 (MDA-N): 3.44 µM (inactive)
GI50 (MOLT-4): 0.615 µM (active)
GI50 (Malme-3M): 3.27 µM (inactive)
GI50 (NCI-H226): 5.61 µM (inactive)
GI50 (NCI-H23): 4.82 µM (inactive)
GI50 (NCI-H460): 2.62 µM (inactive)
GI50 (NCI-H522): 0.514 µM (active)
GI50 (NCI/ADR-RES): 17.9 µM (inactive)
GI50 (OVCAR-3): 2.21 µM (inactive)
GI50 (OVCAR-4): 1.06 µM (active)
GI50 (OVCAR-5): 13.7 µM (inactive)
GI50 (OVCAR-8): 2.93 µM (inactive)
GI50 (PC-3): 12.4 µM (inactive)
GI50 (RPMI-8226): 0.849 µM (active)
GI50 (RXF 393): 1.95 µM (inactive)
GI50 (SF-268): 8.09 µM (inactive)
GI50 (SF-295): 11.2 µM (inactive)
GI50 (SF-539): 0.303 µM (active)
GI50 (SK-MEL-28): 2.21 µM (inactive)
GI50 (SK-MEL-2): 4.7 µM (inactive)
GI50 (SK-MEL-5): 11.1 µM (inactive)
GI50 (SK-OV-3): 15.4 µM (inactive)
GI50 (SN12C): 6.82 µM (inactive)
GI50 (SNB-19): 11.9 µM (inactive)
GI50 (SNB-75): 0.382 µM (active)
GI50 (SR): 0.973 µM (active)
GI50 (SW-620): 1.56 µM (inactive)
GI50 (T47D): 2.56 µM (inactive)
GI50 (TK-10): 2.39 µM (inactive)
GI50 (U-251): 7.98 µM (inactive)
GI50 (UACC-257): 3.63 µM (inactive)
GI50 (UACC-62): 2.07 µM (inactive)
GI50 (UO-31): 3.69 µM (inactive)

Cc1ccc([S+]([O-])/C=C(\NC(=O)OCc2ccccc2)C(F)(F)F)cc1 (stereo not drawn)
GI50 (786-0): 53.3 µM (inactive)
GI50 (A549): 41 µM (inactive)
GI50 (ACHN): 17.8 µM (inactive)
GI50 (BT-549): > 100 µM (inactive)
GI50 (CAKI-1): 42 µM (inactive)
GI50 (CCRF-CEM): 31.6 µM (inactive)
GI50 (COLO 205): 58.6 µM (inactive)
GI50 (DU-145): 77.3 µM (inactive)
GI50 (EKVX): 46.6 µM (inactive)
GI50 (HCC 2998): 37.5 µM (inactive)
GI50 (HCT-116): 45.7 µM (inactive)
GI50 (HCT-15): 33.4 µM
GI50 (HL-60): 18 µM (inactive)
GI50 (HOP-92): 55.8 µM (inactive)
GI50 (HT-29): 32.1 µM (inactive)
GI50 (IGROV-1): 45.3 µM (inactive)
GI50 (K562): 28.1 µM (inactive)
GI50 (KM12): 32.9 µM (inactive)
GI50 (LOX IMVI): 32.1 µM (inactive)
GI50 (M14): > 100 µM (inactive)
GI50 (MCF7): 32.2 µM (inactive)
GI50 (MDA-MB-231): 55.2 µM (inactive)
GI50 (MDA-MB-435): 22.4 µM (inactive)
GI50 (MDA-N): 38.6 µM (inactive)
GI50 (MOLT-4): 25.2 µM (inactive)
GI50 (Malme-3M): 35.2 µM (inactive)
GI50 (NCI-H226): 34.4 µM (inactive)
GI50 (NCI-H23): 33.4 µM (inactive)
GI50 (NCI-H460): 41.4 µM (inactive)
GI50 (NCI-H522): 29.8 µM (inactive)
GI50 (NCI/ADR-RES): 33.1 µM (inactive)
GI50 (OVCAR-3): 43.6 µM (inactive)
GI50 (OVCAR-4): 67.5 µM (inactive)
GI50 (OVCAR-5): 52 µM (inactive)
GI50 (OVCAR-8): 36.9 µM (inactive)
GI50 (PC-3): 50.4 µM (inactive)
GI50 (RXF 393): 35.5 µM (inactive)
GI50 (SF-295): 39.8 µM (inactive)
GI50 (SF-539): 26.7 µM (inactive)
GI50 (SK-MEL-28): 22.1 µM (inactive)
GI50 (SK-MEL-2): 32.4 µM (inactive)
GI50 (SK-MEL-5): 60.4 µM (inactive)
GI50 (SK-OV-3): > 100 µM (inactive)
GI50 (SN12C): 45.4 µM (inactive)
GI50 (SNB-19): 29.3 µM (inactive)
GI50 (SNB-75): 18.8 µM (inactive)
GI50 (SR): 30.4 µM (inactive)
GI50 (SW-620): 19.3 µM (inactive)
GI50 (T47D): 39.7 µM (inactive)
GI50 (TK-10): 80.2 µM (inactive)
GI50 (U-251): 18.6 µM (inactive)
GI50 (UACC-257): 78 µM (inactive)
GI50 (UACC-62): 35.2 µM (inactive)
GI50 (UO-31): 21.9 µM (inactive)
